The source made the active and inactive calls.
Tests used:
[1] = system: Saccharomyces cerevisiae; experiment: NALP1 inhibitor project selectivity study, Caspase-1/ASC signal blockade IC50 in S. cerevisiae (AID 488863); format: functional, organism-based
[2] = molecular target: T1, Ubiquitin-conjugating enzyme E2 N (Homo sapiens, UniProt P61088); format: functional;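 further: Dose-response confirmation in a TR-FRET assay detecting UBC13-driven polyubiquitin chain formation, inhibition measured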
T1 sequence (P61088 whole entry): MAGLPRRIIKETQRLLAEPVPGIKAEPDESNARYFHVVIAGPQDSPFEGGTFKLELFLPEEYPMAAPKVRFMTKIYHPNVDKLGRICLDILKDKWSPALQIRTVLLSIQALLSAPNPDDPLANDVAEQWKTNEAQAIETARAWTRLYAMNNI

[3] = molecular target: NACHT, LRR and PYD domains-containing protein 1 (Homo sapiens, UniProt Q9C000); experiment: NALP1 inhibitors in yeast, dose response, luminescent (AID 488860); format: functional
[4] = inhibitors of firefly luciferase expression or activity, dose response, H4 neuroglioma cells, luminescence (AID 1990); format: functional, cell-based
[5] = luciferase reporter signal reduction – luminescence, H4-C neuroglioblastoma cells, dose response (AID 2458); format: functional, cell-based;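 further: H4 neuroglioblastoma cells stably carrying a luciferase reporter gene fusion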
[6] = system: BJ; experiment: cytotoxicity toward BJ-TERT fibroblasts, dose response, cell-based, RAS-independent, luminescence (AID 1933); format: functional; conditions: Homo sapiens
[7] = cells; format: functional, cell-based
[8] = Luminescence Cell-Based Dose Response HTS to Identify Inhibitors of 5'UTR Stem-Loop Driven Prion Protein mRNA Translation in H4 Neuroglioblastoma Cells. [Related pubchem assays: 1827 (Project Summary), 1813 (Primary HTS)]; format: functional
[9] = inhibitors of SNCA 5'UTR-driven reporter translation, confirmation, H4 neuroglioma cells, luminescence (AID 1988); format: functional, cell-based
[10] = system: BJ; experiment: cells; format: functional, cell-based; conditions: Homo sapiens
[11] = system: J774.A1; experiment: Confirmation of image-based Screening Assay for Inhibitors of Phagocytosis. [Related pubchem assays (depositor defined):AID1029, AID1643]; format: functional, cell-based; conditions: Mus musculus
[12] = system: BJ; experiment: cytotoxicity toward BJ-TERT-LT-ST fibroblasts, dose response, cell-based, RAS-independent, luminescence (AID 1935); format: functional; conditions: Homo sapiens;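 further: BJ fibroblasts immortalized with TERT plus LT and ST oncogenes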
[13] = cytotoxicity toward DRD oncogenic fibroblasts, dose response, cell-based, non-viral oncogenic, luminescence (AID 1934); format: functional; conditions: Homo sapiens
[14] = inhibitors of SNCA 5'UTR-driven translation, confirmation, luminescence, H4 neuroglioblastoma cells, dose confirmation (AID 2454); format: functional, cell-based;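 further: H4 neuroglioblastoma cells carrying an alpha-synuclein 5'UTR luciferase reporter; potency for inhibition of the luciferase signal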
[15] = molecular target: Protein Rev (Human immunodeficiency virus type 1 group M subtype B (isolate HXB2)(HIV-1), UniProt P04618); experiment: inhibitors of Rev binding to RRE RNA, dose response, biochemical, fluorescence polarization, HIV-1 (AID 434976); parameters: species or system Human immunodeficiency virus 1
Sequence of Protein Rev (P04618 whole entry): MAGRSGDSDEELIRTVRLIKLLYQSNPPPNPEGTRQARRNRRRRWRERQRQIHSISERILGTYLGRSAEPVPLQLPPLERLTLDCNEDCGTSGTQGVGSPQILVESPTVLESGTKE

[16] = molecular target: Female germline-specific tumor suppressor gld-1 (Caenorhabditis elegans, UniProt Q17339); experiment: inhibitors of GLD-1 binding to TGE RNA, dose response, biochemical, fluorescence polarization, C. elegans (AID 2802);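 further: fluorescence polarization of labeled TGE RNA bound by purified gld-1 protein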
[17] = molecular target: T2, Short transient receptor potential channel 4 (Mus musculus, UniProt Q9QUQ5); experiment: mouse TRPC4 channel activators, dose response, cell-based, HEK293 TRPC4/mu-opioid, Fluo-4 calcium (AID 434937); format: functional
T2 sequence (Q9QUQ5 whole entry): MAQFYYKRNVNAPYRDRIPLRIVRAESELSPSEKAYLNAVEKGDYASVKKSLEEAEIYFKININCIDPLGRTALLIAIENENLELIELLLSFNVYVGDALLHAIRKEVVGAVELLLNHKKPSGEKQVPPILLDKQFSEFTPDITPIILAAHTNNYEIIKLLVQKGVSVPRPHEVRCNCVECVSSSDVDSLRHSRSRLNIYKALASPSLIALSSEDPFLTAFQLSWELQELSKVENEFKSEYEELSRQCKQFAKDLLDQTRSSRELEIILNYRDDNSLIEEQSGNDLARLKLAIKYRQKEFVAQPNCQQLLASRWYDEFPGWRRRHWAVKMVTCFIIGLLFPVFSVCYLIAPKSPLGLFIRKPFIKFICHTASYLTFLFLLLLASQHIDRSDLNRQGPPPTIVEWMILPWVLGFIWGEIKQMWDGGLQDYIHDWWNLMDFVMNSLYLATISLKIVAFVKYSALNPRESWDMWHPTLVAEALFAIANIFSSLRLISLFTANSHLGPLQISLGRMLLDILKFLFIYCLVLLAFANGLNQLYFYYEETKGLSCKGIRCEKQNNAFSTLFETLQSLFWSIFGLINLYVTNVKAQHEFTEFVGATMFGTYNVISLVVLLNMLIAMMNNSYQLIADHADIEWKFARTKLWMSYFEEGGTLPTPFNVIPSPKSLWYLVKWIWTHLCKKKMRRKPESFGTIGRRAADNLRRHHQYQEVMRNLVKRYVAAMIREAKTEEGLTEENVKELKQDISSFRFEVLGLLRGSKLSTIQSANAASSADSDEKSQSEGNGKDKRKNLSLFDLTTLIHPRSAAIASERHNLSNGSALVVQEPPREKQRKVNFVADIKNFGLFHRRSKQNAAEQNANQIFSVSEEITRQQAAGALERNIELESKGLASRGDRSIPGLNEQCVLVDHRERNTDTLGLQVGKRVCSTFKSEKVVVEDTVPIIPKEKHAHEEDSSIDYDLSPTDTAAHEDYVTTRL

[18] = molecular target: Nonstructural protein 1 (Influenza A virus, UniProt Q194T2); format: functional, Influenza A virus (A/California/07/2009(H1N1))
[19] = molecular target: Trypsin (Sus scrofa, UniProt P00761); experiment: porcine trypsin inhibitors, dose response, selectivity assay for Rce1 protease inhibitor project, biochemical, quenched peptide fluorescence, cherry-pick (AID 488789)
Sequence of Trypsin (P00761 whole entry): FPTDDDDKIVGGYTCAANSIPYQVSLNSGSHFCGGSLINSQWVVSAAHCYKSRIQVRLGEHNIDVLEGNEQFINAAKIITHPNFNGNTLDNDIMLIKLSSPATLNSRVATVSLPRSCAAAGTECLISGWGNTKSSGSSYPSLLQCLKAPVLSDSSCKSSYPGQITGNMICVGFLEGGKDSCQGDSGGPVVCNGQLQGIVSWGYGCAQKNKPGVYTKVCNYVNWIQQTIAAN

[20] = molecular target: CAAX prenyl protease 2 (Saccharomyces cerevisiae S288c, UniProt Q03530); format: biochemical
Sequence of CAAX prenyl protease 2 (Saccharomyces cerevisiae S288c, UniProt Q03530) (Q03530 whole entry): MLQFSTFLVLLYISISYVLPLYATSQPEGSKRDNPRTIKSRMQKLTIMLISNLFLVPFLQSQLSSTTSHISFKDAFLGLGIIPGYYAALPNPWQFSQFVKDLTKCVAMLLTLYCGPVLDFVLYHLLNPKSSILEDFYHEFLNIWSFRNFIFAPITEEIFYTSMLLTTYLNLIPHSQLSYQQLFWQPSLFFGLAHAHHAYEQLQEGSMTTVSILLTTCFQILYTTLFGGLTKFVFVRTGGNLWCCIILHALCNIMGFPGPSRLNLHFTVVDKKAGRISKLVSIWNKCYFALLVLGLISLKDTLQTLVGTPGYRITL

[21] = molecular target: CAAX prenyl protease 1 (Saccharomyces cerevisiae S288c, UniProt P47154); experiment: Ste24 protease inhibitors, dose response, biochemical, S. cerevisiae, plate reader, cherry-pick (AID 488815)
[22] = molecular target: T3, CAAX prenyl protease 2 (Homo sapiens, UniProt Q9Y256); experiment: human Rce1 protease inhibitors, dose response, biochemical, yeast membranes, quenched-peptide fluorescence, cherry-pick (AID 588849)
T3 sequence (Q9Y256 whole entry): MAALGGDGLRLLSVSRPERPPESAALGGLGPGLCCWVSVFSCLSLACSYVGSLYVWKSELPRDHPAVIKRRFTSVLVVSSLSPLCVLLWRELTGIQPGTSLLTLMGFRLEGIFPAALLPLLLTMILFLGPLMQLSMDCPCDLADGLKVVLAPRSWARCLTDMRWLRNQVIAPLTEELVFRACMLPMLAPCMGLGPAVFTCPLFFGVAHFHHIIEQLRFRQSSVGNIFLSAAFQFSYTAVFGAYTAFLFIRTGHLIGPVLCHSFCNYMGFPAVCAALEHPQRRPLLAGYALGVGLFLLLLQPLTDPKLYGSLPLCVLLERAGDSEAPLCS

[23] = inhibitors of Vif binding to APOBEC3G peptide, primary screen, biochemical, TR-FRET, GST-Vif 1-94, biotin-A3G peptide, dose response retest (AID 1117319); format: functional;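 further: TR-FRET signal of purified GST-Vif binding a biotinylated A3G peptide; inhibitors lower the FRET signal by blocking Vif and A3G binding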
[24] = molecular target: Large T antigen (Simian virus 40, UniProt P03070); format: functional, Betapolyomavirus macacae;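 further: Confirmatory-stage PubChem screen for compounds that inhibit SV40 T antigen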
[25] = molecular target: T4, Estrogen receptor beta (Homo sapiens, UniProt Q92731);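 further: recombinant ER-beta bound to coactivator SRC1 peptide in presence of estradiol agonist; inhibitors block coactivator peptide binding and lower the FRET signal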
T4 sequence (Q92731 whole entry): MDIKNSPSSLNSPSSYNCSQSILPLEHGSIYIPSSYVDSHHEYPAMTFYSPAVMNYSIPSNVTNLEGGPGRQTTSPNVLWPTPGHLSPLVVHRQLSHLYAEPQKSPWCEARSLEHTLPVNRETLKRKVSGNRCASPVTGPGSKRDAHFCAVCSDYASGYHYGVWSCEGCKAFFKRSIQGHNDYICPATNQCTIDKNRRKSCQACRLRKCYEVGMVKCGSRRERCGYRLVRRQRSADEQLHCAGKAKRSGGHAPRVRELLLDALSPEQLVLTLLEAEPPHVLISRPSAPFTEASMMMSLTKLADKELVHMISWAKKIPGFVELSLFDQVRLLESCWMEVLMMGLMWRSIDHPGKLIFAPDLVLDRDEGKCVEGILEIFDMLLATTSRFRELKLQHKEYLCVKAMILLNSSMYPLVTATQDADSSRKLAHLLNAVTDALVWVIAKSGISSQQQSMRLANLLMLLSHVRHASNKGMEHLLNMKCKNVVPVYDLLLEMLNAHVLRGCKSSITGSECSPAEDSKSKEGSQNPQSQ

[26] = molecular target: T4, Estrogen receptor beta; experiment: ERβ–SRC-3 coactivator interaction inhibitors, confirmation, orthogonal assay, biochemical, ELISA, streptavidin-HRP readout (AID 1060)
[27] = inhibitors of Bluetongue virus cytopathic effect, confirmation, arbovirus, BSR cells (AID 1250); format: functional;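 further: protection from viral cytopathic effect measured as cell viability by ATP luminescence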
[28] = molecular target: Induced myeloid leukemia cell differentiation protein Mcl-1 (Homo sapiens, UniProt Q07820); format: functional
[29] = inhibition of K1F phage lysis, E. coli UTI89, bacterial capsule biogenesis inhibitors, alamar blue (AID 488966); format: functional
[30] = molecular target: 26S proteasome non-ATPase regulatory subunit 14 (Homo sapiens, UniProt O00487); experiment: inhibition of proteasome subunit RPN11 – biochemical, fluorescence polarization, uHTS hits, confirmation (AID 602368); format: functional
[31] = molecular target: 72 kDa type IV collagenase (Homo sapiens, UniProt P08253); experiment: Dose Response validation of uHTS RPN11 inhibitor hits using a MMP-2 Fluorescence assay.; format: functional
Sequence of 72 kDa type IV collagenase (P08253 whole entry): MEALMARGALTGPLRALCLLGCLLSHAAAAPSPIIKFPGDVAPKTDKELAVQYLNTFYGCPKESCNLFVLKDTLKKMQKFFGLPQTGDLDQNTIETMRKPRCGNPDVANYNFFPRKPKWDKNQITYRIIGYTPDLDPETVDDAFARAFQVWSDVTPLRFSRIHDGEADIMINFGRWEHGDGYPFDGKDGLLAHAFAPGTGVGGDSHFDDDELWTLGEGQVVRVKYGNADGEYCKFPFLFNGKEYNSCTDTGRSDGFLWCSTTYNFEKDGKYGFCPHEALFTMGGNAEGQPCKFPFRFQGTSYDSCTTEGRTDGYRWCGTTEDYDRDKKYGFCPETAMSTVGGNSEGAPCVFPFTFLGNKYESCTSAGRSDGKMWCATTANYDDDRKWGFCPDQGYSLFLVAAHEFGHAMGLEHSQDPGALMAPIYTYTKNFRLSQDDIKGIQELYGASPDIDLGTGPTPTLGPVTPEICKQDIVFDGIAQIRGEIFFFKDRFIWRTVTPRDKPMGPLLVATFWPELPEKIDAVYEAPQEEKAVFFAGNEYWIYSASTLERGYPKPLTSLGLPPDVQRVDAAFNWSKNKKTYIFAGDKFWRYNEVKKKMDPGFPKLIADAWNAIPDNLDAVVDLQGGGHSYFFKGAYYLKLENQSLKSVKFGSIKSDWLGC

[32] = molecular target: Prothrombin (Bos taurus, UniProt P00735); experiment: thrombin inhibition, dose response, biochemical, fluorescence polarization, uHTS hits (AID 602369); format: functional
[33] = molecular target: T5, Protein skinhead-1 (Caenorhabditis elegans, UniProt P34707); format: functional
T5 sequence (P34707 whole entry): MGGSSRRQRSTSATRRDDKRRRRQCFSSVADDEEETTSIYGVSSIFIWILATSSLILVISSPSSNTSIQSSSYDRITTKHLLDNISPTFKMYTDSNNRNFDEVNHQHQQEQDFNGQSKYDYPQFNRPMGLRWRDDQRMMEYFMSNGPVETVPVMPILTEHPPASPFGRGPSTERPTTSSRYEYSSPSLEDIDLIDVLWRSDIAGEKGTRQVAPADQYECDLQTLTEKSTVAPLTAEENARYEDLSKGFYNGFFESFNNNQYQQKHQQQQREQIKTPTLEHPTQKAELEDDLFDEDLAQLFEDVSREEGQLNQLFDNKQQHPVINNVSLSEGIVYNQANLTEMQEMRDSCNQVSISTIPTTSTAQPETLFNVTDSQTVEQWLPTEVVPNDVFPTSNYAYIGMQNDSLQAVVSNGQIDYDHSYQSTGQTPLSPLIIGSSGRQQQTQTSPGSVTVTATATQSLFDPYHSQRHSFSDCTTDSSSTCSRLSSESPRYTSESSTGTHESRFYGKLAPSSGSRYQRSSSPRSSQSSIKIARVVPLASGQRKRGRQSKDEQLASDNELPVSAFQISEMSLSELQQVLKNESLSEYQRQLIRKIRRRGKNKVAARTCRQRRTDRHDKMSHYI

[34] = molecular target: Protein Tat (Human immunodeficiency virus type 1 group M subtype B (isolate HXB2)(HIV-1), UniProt P04608); format: functional;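 further: tat binding to TAR RNA read out by fluorescence polarization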
[35] = molecular target: T6, Voltage-gated N-type calcium channel alpha-1B subunit/Amyloid beta A4 precursor protein-binding family A member 1 (Homo sapiens, UniProt Q00975+Q02410); format: protein assay
T6 sequence (Q00975 whole entry): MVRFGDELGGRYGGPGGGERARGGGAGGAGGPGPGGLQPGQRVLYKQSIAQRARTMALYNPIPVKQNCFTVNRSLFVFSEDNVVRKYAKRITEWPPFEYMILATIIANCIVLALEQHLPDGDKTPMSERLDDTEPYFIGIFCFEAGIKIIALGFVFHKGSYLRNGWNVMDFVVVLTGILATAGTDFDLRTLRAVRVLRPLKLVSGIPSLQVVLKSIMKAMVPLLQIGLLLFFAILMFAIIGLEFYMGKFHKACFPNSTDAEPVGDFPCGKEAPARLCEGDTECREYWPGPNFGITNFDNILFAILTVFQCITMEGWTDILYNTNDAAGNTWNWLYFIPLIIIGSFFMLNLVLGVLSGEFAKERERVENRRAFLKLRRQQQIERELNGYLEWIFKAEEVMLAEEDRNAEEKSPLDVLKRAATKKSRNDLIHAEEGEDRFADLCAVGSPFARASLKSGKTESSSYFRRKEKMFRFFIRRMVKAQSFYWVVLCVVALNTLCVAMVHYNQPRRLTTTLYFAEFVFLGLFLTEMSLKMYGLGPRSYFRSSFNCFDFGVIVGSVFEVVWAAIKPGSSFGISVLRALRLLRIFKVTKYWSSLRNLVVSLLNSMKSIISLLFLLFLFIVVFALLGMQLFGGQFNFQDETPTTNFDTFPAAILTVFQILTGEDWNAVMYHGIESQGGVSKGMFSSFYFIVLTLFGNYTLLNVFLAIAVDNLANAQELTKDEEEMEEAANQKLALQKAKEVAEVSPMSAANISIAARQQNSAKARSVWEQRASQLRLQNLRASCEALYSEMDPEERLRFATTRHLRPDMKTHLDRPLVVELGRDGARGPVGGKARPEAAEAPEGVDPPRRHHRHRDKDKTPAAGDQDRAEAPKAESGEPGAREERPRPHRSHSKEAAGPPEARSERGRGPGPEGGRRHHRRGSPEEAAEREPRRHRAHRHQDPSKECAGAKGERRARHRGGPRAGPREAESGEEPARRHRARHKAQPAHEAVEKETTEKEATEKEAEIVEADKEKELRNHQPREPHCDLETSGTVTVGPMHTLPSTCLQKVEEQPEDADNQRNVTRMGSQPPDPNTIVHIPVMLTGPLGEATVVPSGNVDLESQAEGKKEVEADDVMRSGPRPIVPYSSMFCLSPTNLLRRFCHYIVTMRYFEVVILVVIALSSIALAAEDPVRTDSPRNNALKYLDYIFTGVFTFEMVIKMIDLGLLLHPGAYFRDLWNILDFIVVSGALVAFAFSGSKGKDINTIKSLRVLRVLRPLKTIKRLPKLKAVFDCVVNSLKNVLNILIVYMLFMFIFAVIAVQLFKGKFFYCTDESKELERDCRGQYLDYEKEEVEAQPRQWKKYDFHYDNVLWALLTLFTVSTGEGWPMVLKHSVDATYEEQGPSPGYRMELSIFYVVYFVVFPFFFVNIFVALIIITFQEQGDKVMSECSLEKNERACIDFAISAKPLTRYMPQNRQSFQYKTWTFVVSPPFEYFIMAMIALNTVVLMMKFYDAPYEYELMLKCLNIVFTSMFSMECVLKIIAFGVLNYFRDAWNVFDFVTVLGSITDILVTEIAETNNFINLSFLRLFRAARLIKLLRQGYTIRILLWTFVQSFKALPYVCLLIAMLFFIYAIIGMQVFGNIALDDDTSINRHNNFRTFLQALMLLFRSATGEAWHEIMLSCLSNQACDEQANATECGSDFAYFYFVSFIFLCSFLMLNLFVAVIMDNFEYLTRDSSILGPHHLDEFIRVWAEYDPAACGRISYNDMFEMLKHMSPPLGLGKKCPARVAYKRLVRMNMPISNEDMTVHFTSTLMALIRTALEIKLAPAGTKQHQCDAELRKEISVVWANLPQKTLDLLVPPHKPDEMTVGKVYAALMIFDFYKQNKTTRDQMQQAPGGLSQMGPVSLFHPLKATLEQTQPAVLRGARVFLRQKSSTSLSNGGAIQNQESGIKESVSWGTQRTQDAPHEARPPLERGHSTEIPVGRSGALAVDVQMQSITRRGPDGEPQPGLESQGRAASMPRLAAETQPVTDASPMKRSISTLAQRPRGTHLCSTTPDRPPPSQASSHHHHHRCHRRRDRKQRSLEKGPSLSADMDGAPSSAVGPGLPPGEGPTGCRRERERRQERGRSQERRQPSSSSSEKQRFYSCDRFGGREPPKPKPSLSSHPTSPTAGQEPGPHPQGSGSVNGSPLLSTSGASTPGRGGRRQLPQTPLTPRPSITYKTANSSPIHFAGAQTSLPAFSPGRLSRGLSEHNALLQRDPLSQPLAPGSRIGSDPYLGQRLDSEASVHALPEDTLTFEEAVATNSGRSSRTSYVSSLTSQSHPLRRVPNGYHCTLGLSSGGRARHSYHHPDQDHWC
T6 sequence (Q02410 whole entry): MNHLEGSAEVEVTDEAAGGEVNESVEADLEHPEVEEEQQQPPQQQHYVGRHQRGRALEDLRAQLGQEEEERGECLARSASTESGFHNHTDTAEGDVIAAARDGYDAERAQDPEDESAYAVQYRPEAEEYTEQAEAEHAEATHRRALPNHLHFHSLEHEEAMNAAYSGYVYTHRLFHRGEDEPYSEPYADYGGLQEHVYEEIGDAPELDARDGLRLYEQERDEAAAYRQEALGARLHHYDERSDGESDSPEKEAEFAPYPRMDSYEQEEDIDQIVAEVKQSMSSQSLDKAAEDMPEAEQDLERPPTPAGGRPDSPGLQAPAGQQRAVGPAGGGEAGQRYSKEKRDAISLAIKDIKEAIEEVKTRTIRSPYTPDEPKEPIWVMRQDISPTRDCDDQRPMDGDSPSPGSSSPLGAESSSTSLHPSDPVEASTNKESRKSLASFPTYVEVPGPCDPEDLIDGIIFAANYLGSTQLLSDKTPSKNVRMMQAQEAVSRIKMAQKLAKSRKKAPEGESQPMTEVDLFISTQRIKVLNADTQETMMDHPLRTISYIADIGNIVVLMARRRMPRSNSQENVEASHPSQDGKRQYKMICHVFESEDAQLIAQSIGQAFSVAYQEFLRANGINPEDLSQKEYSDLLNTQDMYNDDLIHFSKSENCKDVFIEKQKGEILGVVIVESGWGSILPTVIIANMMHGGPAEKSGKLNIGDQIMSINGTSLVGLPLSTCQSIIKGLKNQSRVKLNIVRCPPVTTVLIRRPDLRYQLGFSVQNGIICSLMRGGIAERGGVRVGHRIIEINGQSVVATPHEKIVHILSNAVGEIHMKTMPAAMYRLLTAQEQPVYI

[36] = molecular target: T6, Voltage-gated N-type calcium channel alpha-1B subunit/Amyloid beta A4 precursor protein-binding family A member 1; format: protein assay; remark: listed apart in the source
[37] = molecular target: T7, Caspase-3 (Homo sapiens, UniProt P42574); experiment: procaspase-3 activators, dose response, biochemical, absorbance (AID 489014)
T7 sequence (P42574 whole entry): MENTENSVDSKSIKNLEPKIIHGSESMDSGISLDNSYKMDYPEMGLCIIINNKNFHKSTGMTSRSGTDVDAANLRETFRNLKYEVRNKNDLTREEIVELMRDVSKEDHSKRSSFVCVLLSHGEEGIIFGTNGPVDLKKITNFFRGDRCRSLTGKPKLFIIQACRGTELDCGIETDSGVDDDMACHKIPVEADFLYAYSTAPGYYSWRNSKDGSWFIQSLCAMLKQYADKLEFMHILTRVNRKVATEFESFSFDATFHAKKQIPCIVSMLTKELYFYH

[38] = molecular target: Caspase-7 (Homo sapiens, UniProt P55210); experiment: procaspase-7 activators, dose response, counter-screen for procaspase-3 activator project, biochemical, absorbance (AID 489013)

SMILES: Cc1ccc2nc(N(CCCN(C)C)C(=O)c3sc4ccccc4c3Cl)sc2c1
- IC50 [1]: 6.52 µM (active)
- IC50 [2]: > 20 µM (inactive)
- IC50 [3]: 16.9 µM (active)

SMILES: COC(=O)Nc1nc(-c2ccccc2)c(C(=O)c2ccccc2)s1
- EC50 [4]: 1.73 µM (active)
- EC50 [5]: 1.04 µM (active)
- EC50 [6]: 0.676 µM (active)
- EC50 [7]: 1.19 µM (active)
- EC50 [8]: < 0.1 µM (active)
- EC50 [9]: < 0.1 µM (active)
- EC50 [10]: 1.56 µM (active)
- IC50 [11]: > 25 µM (inactive)
- EC50 [12]: 0.479 µM (active)
- EC50 [13]: 1.04 µM (active)
- EC50 [14]: 1.36 µM (active)

SMILES: Cc1ccc(N2CCN(c3ccc(NCc4nc5ccccc5n4C)cc3)CC2)cc1
- IC50 [15]: 19.6 µM (not active)
- IC50 [16]: > 2.21 µM (active)
- EC50 [17]: 1.06 µM (active)
- IC50 [18]: 75.6 µM (active)

SMILES: CC(=O)Nc1ccc(S(=O)(=O)Nc2cccc(-c3nc4ccccc4o3)c2)cc1
- AC50 [19]: 5.89 µM (active)
- AC50 [20]: 14.4 µM (active)
- AC50 [21]: 7.83 µM (active)
- AC50 [22]: 7.75 µM (active)
- IC50 [23]: > 100 µM (active)

SMILES: CCCC1=NN2C(=N)/C(=C\c3ccc(SCc4ccco4)o3)C(=O)N=C2S1
- IC50 [24]: 29.3 µM (active)
- IC50 [25]: 2.65 µM (active)
- IC50 [26]: > 50 µM (not active)
- IC50 [27]: 59.4 µM (active)
- IC50 [28]: 3.18 µM (active)
- IC50 [29]: > 75 µM (active)
- IC50 [30]: 13.7 µM (active)
- IC50 [31]: 6.34 µM (active)
- IC50 [32]: 22.8 µM (active)
- IC50 [33]: > 100 µM (inactive)
- IC50 [34]: 1.98 µM (inconclusive)

SMILES: Cc1cc2nn(-c3cccc4ccccc34)nc2cc1N
- IC50 [35]: 8.23 µM (active)
- IC50 [36]: 46.7 µM (active)
- EC50 [37]: > 85.2 µM (inactive)
- EC50 [38]: > 85.2 µM (inactive)

Reference: ChEMBL document CHEMBL1201862, “PubChem BioAssay data set” (2004)
